PMC9124820, “In vitro evaluation of fenfluramine and norfenfluramine as victims of drug interactions” (Pharmacology Research & Perspectives, 2022)

How the values were obtained:
[1] = Metabolic stability and metabolite identity, rat intestinal S9 fractions; format: in vitro ADME; conditions: intestinal S9 fractions, pH 7.4; 1 µM FFA, rat intestine S9 fractions; outside assay detection limits
Method: (§1) LC‐MS/MS analyses to assess metabolic stability and identify the transporter substrate were performed using an API 4000 QTRAP mass spectrometer (SCIEX, Framingham, MA) with electrospray ionization in positive mode. Chromatography was performed using an Atlantis dC18 analytical column (100 × 2.1 mm, 5 µm; Waters Corporation, Milford, MA). Mobile phases were 0.2% v/v formic acid in water and 0.2% v/v formic acid in acetonitrile. For metabolic stability experiments, FFA and metabolites were eluted at a flow rate of 0.6 mL/min, with a linear gradient of 20%−80% acetonitrile from 0.30−2.0 min. For transporter substrate experiments, the gradient was slightly modified to achieve suitable chromatography. The mass transitions monitored were 232.0 > 159.0 for FFA and 348.0 > 330.0 for 1ʹ‐OH‐midazolam‐d4 internal standard. […]
(§2) FFA (1 or 10 µM) was incubated with liver and intestinal S9 fractions (2 mg protein/mL) at 37 ± 1°C in 0.2‐mL incubation mixtures containing potassium phosphate buffer (50 mM, pH 7.4), magnesium chloride (MgCl2) (3 mM), and EDTA (1 mM, pH 7.4), in the presence or absence of a three‐component cofactor mixture (NADPH‐generating system, uridine diphosphate glucuronic acid (UDPGA) [8 mM], and 3’‐phosphoadenosine 5’‐phosphosulfate [0.5 mM]). […] Supernatant fractions were analyzed by LC‐MS/MS.
(§3) To characterize substrate loss and metabolic stability, duplicate samples were analyzed by LC‐MS/MS to determine the change in substrate concentration over the incubation period. The rate constant of elimination (kel, min^−1) was determined from the time course of substrate loss based on single exponential decay (A(t)=A0(‐kelt)) . Half‐life in vitro was determined by the following equation: t1/2 = 0.693/kel. The in vitro intrinsic clearance (CLint) was calculated from the rate constant of elimination as follows: CLintμL/min/mgprotein=kelmin^‐1×incubationvolume(μL)/mgproteinperincubation.
(§4) Percent loss of substrate was determined by normalizing the mean analyte peak‐area ratio at each time point to the average of four replicates at the 0‐min time point (100%).

[2] = Metabolic stability and metabolite identity, human intestinal S9 fractions; format: in vitro ADME; conditions: pH 7.4, 1 µM FFA, human intestine S9 fractions, outside assay detection limits
Method: as §1, with “For transporter substrate experiments, the gradient was slightly modified to achieve suitable chromatography.” left out
as §2
(§5) To characterize substrate loss and metabolic stability, duplicate samples were analyzed by LC‐MS/MS to determine the change in substrate concentration over the incubation period. […]

[3] = Metabolic stability and metabolite identity, human liver S9 fractions; format: in vitro ADME
Method: LC‐MS/MS analyses to assess metabolic stability and identify the transporter substrate were performed using an API 4000 QTRAP mass spectrometer (SCIEX, Framingham, MA) with electrospray ionization in positive mode. Chromatography was performed using an Atlantis dC18 analytical column (100 × 2.1 mm, 5 µm; Waters Corporation, Milford, MA). Mobile phases were 0.2% v/v formic acid in water and 0.2% v/v formic acid in acetonitrile. For metabolic stability experiments, FFA and metabolites were eluted at a flow rate of 0.6 mL/min, with a linear gradient of 20%−80% acetonitrile from 0.30−2.0 min. For transporter substrate experiments, the gradient was slightly modified to achieve suitable chromatography. The mass transitions monitored were 232.0 > 159.0 for FFA and 348.0 > 330.0 for 1ʹ‐OH‐midazolam‐d4 internal standard.
For metabolic characterization experiments, LC‐MS/MS analyses were performed using an Acquity Ultra Performance Liquid Chromatography system with an in‐line photodiode array detector and ethylene bridged hybrid C18 columns (2.1 × 100 mm, 1.7 µm; Waters Corporation) coupled to a Synapt G2 HDMS QTOF (Waters Corporation). Mobile phases were 0.1% v/v formic acid in water and 0.1% v/v formic acid in methanol. FFA and metabolites were eluted at a flow rate of 0.5 mL/min with a linear gradient of 2.0%−35% methanol from 1.0−10.0 min. The mass spectrometer was operated in positive mode with electrospray ionization. Data were acquired over the range 50−1200 m/z (mass‐to‐charge ratio) using capillary voltage, 3.5 kV; extraction cone voltage, 4.0 V; source temperature, 120°C; and desolvation temperature, 350°C. A continuous lock mass reference compound, fexofenadine, was sampled at 10‐s intervals for centroid data mass correction. Data were processed with MetaboLynx XS, a component of MassLynx (v. 4.1) software (Waters Corporation).
FFA (1 or 10 µM) was incubated with liver and intestinal S9 fractions (2 mg protein/mL) at 37 ± 1°C in 0.2‐mL incubation mixtures containing potassium phosphate buffer (50 mM, pH 7.4), magnesium chloride (MgCl2) (3 mM), and EDTA (1 mM, pH 7.4), in the presence or absence of a three‐component cofactor mixture (NADPH‐generating system, uridine diphosphate glucuronic acid (UDPGA) [8 mM], and 3’‐phosphoadenosine 5’‐phosphosulfate [0.5 mM]). The NADPH‐generating system consisted of NADP (1 mM, pH 7.4), glucose‐6‐phosphate (5 mM, pH 7.4), and glucose‐6‐phosphate dehydrogenase (1 U/mL). Reactions were initiated by adding the cofactor mix and were stopped at 0, 30, 60, or 120 min by adding an equal volume of acetonitrile. Cofactor controls were incubations performed in parallel in the absence of cofactor for 120 min. Additional incubations were performed with midazolam (10 μM) as a positive control to establish the metabolic competence of test systems. Samples were centrifuged at 920 × g for 10 min at 10°C. Supernatant fractions were analyzed by LC‐MS/MS.
as §3, §4

[4] = 0.1 mg/kg FFA twice daily with stiripentol plus clobazam, with or without valproate, steady state; ref Prescribing information: https://www.fintepla.com/; cited from earlier work
[5] = Metabolic stability and metabolite identity, dog liver S9 fractions; format: in vitro ADME; conditions: pH 7.4; 1 µM FFA, dog liver S9 fractions 2 mg protein/mL
Method: as §1, with “For transporter substrate experiments, the gradient was slightly modified to achieve suitable chromatography.” left out
as §2, §5

[6] = pH 7.4, 1 µM FFA, human liver S9 fractions 2 mg protein/mL, outside assay detection limits

CCNC(C)Cc1cccc(C(F)(F)F)c1 (racemic) [FFA, (RS)‐ethyl (α‐methyl‐3‐trifluoromethylphenethyl)amine]
half-life at 1 µM [1]: > 2 h | microsomal CLint at 1 µM [1]: < 2.9 µL/min/mg | half-life at 1 µM [2]: > 2 h | microsomal CLint at 1 µM [2]: < 2.9 µL/min/mg | percent of the drug remaining ([3]; human liver S9, 1 μM FFA with cofactors, 30 min): 1.9% | percent of the drug remaining ([3]; human liver S9, 1 μM FFA with cofactors, 60 min): 11.1% | percent of the drug remaining ([3]; human liver S9, 1 μM FFA with cofactors, 120 min): 20.9% | percent of the drug remaining ([3]; human liver S9, 1 μM FFA, absence of the cofactors): 21.6% | percent of the drug remaining ([3]; human liver S9, 10 μM FFA, absence of the cofactors): 22.9% | half-life at 1 µM [3, 6]: > 2 h | microsomal CLint at 1 µM [3, 6]: < 2.9 µL/min/mg | clearance accounted for in vivo (CYP inhibition by stiripentol/clobazam plus renal clearance): approximately 80% | maximum possible amount remaining for metabolism by MAO (human, in vivo, 0.1 mg/kg twice daily): ≤ 20% | increase in FFA AUC0‐24 [4]: 166% | half-life at 1 µM [5]: 0.5 h | microsomal CLint at 1 µM [5]: 11.6 µL/min/mg
